Assay results reported in US10669272B2, “Substituted naphthyridinone compounds useful as T cell activators” (BRISTOL-MYERS SQUIBB COMPANY, priority 2018, dated 2020).
Where two headings read alike, the source gives them in different places.

Legend:
human DGKα = target: T1, human DGKα (Homo sapiens, UniProt P23743); assay: DGKα LIPGLO assay (extruded liposome substrate), in vitro DGK inhibition; assay type: biochemical; conditions: read-out: DGKa LIPGLO IC50
T1 construct: TVMV protease cleavage site (C); Hexa-His (C); made in house; host or cells: Sf9 insect cells (baculovirus, Bac-to-Bac)
T1 sequence (P23743 with tags, fused parts or gaps): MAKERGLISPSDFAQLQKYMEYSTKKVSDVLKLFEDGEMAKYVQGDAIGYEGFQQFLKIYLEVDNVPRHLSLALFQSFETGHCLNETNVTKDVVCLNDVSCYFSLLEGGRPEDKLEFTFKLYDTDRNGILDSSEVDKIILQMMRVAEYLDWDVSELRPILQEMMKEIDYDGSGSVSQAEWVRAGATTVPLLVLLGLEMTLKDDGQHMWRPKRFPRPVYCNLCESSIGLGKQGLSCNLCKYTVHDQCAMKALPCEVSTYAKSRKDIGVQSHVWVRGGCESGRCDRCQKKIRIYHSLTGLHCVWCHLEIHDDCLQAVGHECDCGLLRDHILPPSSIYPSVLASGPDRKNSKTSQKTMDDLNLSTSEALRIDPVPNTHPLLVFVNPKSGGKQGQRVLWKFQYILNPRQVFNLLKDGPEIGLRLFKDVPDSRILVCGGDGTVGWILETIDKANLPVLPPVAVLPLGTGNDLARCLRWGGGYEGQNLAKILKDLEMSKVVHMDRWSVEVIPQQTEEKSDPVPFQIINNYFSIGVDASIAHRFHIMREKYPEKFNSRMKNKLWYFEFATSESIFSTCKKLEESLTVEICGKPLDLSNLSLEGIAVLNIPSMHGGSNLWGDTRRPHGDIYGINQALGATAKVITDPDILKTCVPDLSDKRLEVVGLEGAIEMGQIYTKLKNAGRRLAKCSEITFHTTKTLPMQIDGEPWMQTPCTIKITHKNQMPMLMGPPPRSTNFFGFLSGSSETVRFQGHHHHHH

human DGKζ = target: T2, human DGKζ (Homo sapiens, UniProt Q13574); assay: DGKζ LIPGLO assay (extruded liposome substrate), in vitro DGK inhibition; assay type: biochemical; conditions: read-out: DGKz LIPGLO IC50
T2 construct: TVMV protease cleavage site (C); Hexa-His (C); made in house; host or cells: Sf9 insect cells (baculovirus, Bac-to-Bac)
T2 sequence (Q13574 with tags, fused parts or gaps isoform Q13574-4): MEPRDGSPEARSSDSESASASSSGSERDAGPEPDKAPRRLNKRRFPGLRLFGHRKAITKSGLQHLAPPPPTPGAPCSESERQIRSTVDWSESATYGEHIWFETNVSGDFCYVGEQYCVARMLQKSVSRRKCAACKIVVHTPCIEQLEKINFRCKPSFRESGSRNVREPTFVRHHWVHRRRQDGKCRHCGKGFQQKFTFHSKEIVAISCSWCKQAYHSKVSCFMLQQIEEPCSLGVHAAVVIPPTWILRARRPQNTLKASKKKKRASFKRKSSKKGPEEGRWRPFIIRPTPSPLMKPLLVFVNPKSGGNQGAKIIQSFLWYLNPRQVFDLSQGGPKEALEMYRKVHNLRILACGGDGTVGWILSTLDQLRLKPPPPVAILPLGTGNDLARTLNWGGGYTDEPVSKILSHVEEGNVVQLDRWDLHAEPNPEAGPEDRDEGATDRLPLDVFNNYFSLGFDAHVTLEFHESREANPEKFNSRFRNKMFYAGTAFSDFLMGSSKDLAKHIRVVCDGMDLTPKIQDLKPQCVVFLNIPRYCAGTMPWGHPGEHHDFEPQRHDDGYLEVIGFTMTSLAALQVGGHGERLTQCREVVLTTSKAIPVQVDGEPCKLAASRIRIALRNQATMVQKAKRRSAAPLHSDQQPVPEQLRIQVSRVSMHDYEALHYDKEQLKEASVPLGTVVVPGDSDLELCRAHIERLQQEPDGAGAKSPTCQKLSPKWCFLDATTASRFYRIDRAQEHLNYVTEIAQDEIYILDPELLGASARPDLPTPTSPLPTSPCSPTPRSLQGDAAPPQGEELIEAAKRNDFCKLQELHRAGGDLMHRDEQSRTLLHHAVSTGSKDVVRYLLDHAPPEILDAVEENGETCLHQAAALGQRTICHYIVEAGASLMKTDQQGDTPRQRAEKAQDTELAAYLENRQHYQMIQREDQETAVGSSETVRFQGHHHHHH

Human venous whole blood = assay: Human whole blood IFN-γ assay; assay type: cell-based; conditions: human whole blood, read-out: INFg Whole Blood Normalized Agonist EC50;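 further: blood from healthy donors exposed to compound for 1 h before stimulation with anti-CD3 and anti-CD28 at 1 µg/mL each, IFN-γ quantified in supernatant by AlphaLISA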
[1] = Homo sapiens, 24 h, normalized to 3 μM reference compound with anti-CD3 plus anti-CD28 as 100% activation
[2] = normalized to 3 μM reference compound with anti-CD3 plus anti-CD28 as 100% activation
[3] = Homo sapiens, 24 h, anti-CD3 plus anti-CD28, 24 hours, 3 μM reference compound = 100% activation
[4] = anti-CD3 plus anti-CD28, 24 hours, 3 μM reference compound = 100% activation

| IC50 (human DGKα; liposome (LIPGLO) assay) | IC50 (human DGKζ; liposome (LIPGLO) assay) | IC50 (human DGKα; DGKα liposome (LIPGLO) assay) | IC50 (human DGKζ; DGKζ liposome (LIPGLO) assay) | Compound | EC50 (Human venous whole blood; [1]) | EC50 (Human venous whole blood; [2]) | EC50 (Human venous whole blood; [3]) | EC50 (Human venous whole blood; [4]) |
| --- | --- | --- | --- | --- | --- | --- | --- | --- |
| 1.8 µM | 14 µM |  |  | C[C@@H]1CN(c2cc(=O)[nH]c3ccc(C#N)nc23)[C@@H](C)CN1C(c1ccc(F)cc1)c1ccc(C#N)cc1 (stereo partly drawn) [Example 1336, 8-((2S,5R)-4-((4-cyanophenyl)(4-fluorophenyl)methyl)-2,5-dimethylpiperazin-1-yl)-6-oxo-5,6-dihydro-1,5-naphthyridine-2-carbonitrile] | 11 µM |  |  |  |
| 0.041 µM | 1.4 µM |  |  | CC(c1ccc(OC(F)F)cn1)N1C[C@H](C)N(c2cc(=O)n(C)c3ccc(C#N)nc23)C[C@H]1C (single isomer, unassigned) [Example 1224] |  | 1.8 µM |  |  |
| 5.6 µM | 0.67 µM |  |  | CC(c1ccc2c(c1)OCCO2)N1C[C@H](C)N(c2cc(=O)n(C)c3ccc(C#N)nc23)C[C@H]1C (single isomer, unassigned) [Example 1259] |  | 4.9 µM |  |  |
| 0.029 µM | 0.27 µM |  |  | CCC(c1ccc(OC(F)(F)F)cc1F)N1C[C@H](CC)N(c2cc(=O)n(C)c3ccc(C#N)nc23)C[C@H]1C (single isomer, unassigned) [Example 1377] |  | 2 µM |  |  |
| 0.56 µM | 0.12 µM |  |  | CC[C@H]1CN(C(c2ccc(F)cc2)c2cccc(C(F)(F)F)n2)[C@H](CC)CN1c1cc(=O)n(C)c2ccc(C#N)nc12 (single isomer, unassigned) [Example 1045] | 0.17 µM |  |  |  |
| 13 µM | 0.67 µM |  |  | CC(c1cc(F)cc(OC(F)(F)F)c1)N1C[C@H](C)N(c2cc(=O)n(C)c3ccc(C#N)nc23)C[C@H]1C (single isomer, unassigned) [Example 1211] |  | 8.3 µM |  |  |
| 7.1 µM | 0.35 µM |  |  | CC[C@H]1CN(Cc2ccc3c(c2)OC(F)(F)O3)[C@H](COC)CN1c1cc(=O)n(C)c2ccc(C#N)nc12 [Example 1407] | 4.4 µM |  |  |  |
| 0.013 µM | 0.18 µM |  |  | CC[C@H]1CN(C(c2ccc(F)cc2)c2cscn2)[C@H](CC)CN1c1cc(=O)n(C)c2ccc(C#N)nc12 (single isomer, unassigned) [Example 1070] |  | 1.1 µM |  |  |
| 1.2 µM | 0.47 µM |  |  | C[C@@H]1CN(c2cc(=O)n(C)c3ccc(C#N)nc23)[C@@H](C)CN1C(Cc1nc(C2CC2)no1)c1ccc(F)cc1 (single isomer, unassigned) [Example 1326] |  | 1.7 µM |  |  |
| 1 µM | 0.43 µM |  |  | CC[C@H]1CN(C(c2ccc(C)cc2)c2ccc(C)cc2)[C@H](C)CN1c1cc(=O)n(C)c2ccc(C#N)nc12 [Example 1119] | 17 µM |  |  |  |
| 21 µM | 5.2 µM |  |  | C[C@@H]1CN(c2cc(=O)n(C)c3ccc(C#N)nc23)[C@@H](C)CN1Cc1cc(-c2ccccc2C#N)no1 [Example 1427] | 20 µM |  |  |  |
| 81 µM | 2.4 µM |  |  | Cn1c(=O)cc(N2CCN(Cc3ccc(F)cc3Cl)C(COC(F)F)C2)c2nc(C#N)ccc21 (single isomer, unassigned) [Example 1185, 8-(4-(2-chloro-4-fluorobenzyl)-3-((difluoromethoxy)methyl)piperazin-1-yl)-5-methyl-6-oxo-5,6-dihydro-1,5-naphthyridine-2-carbonitrile] | 4.3 µM |  |  |  |
| 4.2 µM | 1.7 µM |  |  | CCC(c1ccc(OC(C)C)cc1)N1C[C@H](C)N(c2cc(=O)n(C)c3ccc(C#N)nc23)C[C@H]1CC (single isomer, unassigned) [Example 1448] |  | 1.6 µM |  |  |

The next lines start with the compound.

| Compound | IC50 (human DGKα; liposome (LIPGLO) assay) | IC50 (human DGKζ; liposome (LIPGLO) assay) | IC50 (human DGKα; DGKα liposome (LIPGLO) assay) | IC50 (human DGKζ; DGKζ liposome (LIPGLO) assay) | EC50 (Human venous whole blood; [1]) | EC50 (Human venous whole blood; [2]) | EC50 (Human venous whole blood; [3]) | EC50 (Human venous whole blood; [4]) |
| --- | --- | --- | --- | --- | --- | --- | --- | --- |
| CC(c1ccc2nccnc2c1)N1C[C@H](C)N(c2cc(=O)n(C)c3ccc(C#N)nc23)C[C@H]1C (single isomer, unassigned) [Example 651] | 50 µM | 0.95 µM |  |  |  | 20 µM |  |  |
| C[C@@H]1CN(c2c(C#N)c(=O)n(C)c3ccc(C#N)nc23)CCN1C(c1ccc(Cl)cc1)c1ccc(Cl)cn1 (stereo partly drawn) [Example 930] |  |  | 0.64 µM | 1.3 µM |  |  | 1.3 µM |  |
| C[C@@H]1CN(c2c(C#N)c(=O)n(C)c3ccc(C#N)nc23)CCN1C(c1ccc(F)cc1)c1cccc(F)c1 (stereo partly drawn) [Example 881] |  |  | 5.3 µM | 3 µM |  |  |  | 2.1 µM |
| C[C@@H]1CN(c2cc(=O)n(C)c3ccc(C#N)nc23)[C@@H](C)CN1C(c1ccc(F)cc1)c1c(F)cc(F)cc1F (single isomer, unassigned) [Example 693] | 2.2 µM | 0.57 µM |  |  |  | 0.29 µM |  |  |
| CC(c1ccccc1C(F)(F)F)N1CCN(c2c(C#N)c(=O)n(C)c3ccc(C#N)nc23)C[C@H]1C (single isomer, unassigned) [Example 966] |  |  | 61 µM | > 250 µM |  |  | 20 µM |  |
| C[C@@H]1CN(c2cc(=O)n(C)c3ccc(C#N)nc23)[C@@H](C)CN1Cc1ccc(Cl)cc1 [Example 604] | 0.31 µM | 2 µM |  |  | 4.8 µM |  |  |  |
| Cc1cccc(C(c2ccc(F)cc2)N2C[C@H](C)N(c3c(C#N)c(=O)n(C)c4ccc(C#N)nc34)C[C@H]2C)n1 (stereo partly drawn) [Example 815] |  |  | 7.7 µM | 4.1 µM |  |  | 1.9 µM |  |
| Cc1ccc(C(c2cccc(F)c2)N2C[C@H](C)N(c3cc(=O)n(C)c4ccc(C#N)nc34)C[C@H]2C)cn1 (single isomer, unassigned) [Example 390] | 17 µM | 7.4 µM |  |  |  | 2.6 µM |  |  |
| Cc1ccc(C(c2cncc(F)c2)N2C[C@H](C)N(c3cc(=O)n(C)c4ccc(C#N)nc34)C[C@H]2C)cc1 (single isomer, unassigned) [Example 416] | 21 µM | 14 µM |  |  |  | 5.2 µM |  |  |
| C[C@@H]1CN(c2cc(=O)n(C)c3ccc(C#N)nc23)[C@@H](C)CN1C(c1ccc(F)cc1)c1cncnc1 (single isomer, unassigned) [Example 393] | 1.6 µM | 7.1 µM |  |  |  | 3.5 µM |  |  |
| CC(c1ccc(F)cn1)N1C[C@H](C)N(c2cc(=O)n(C)c3ccc(C#N)nc23)C[C@H]1C (single isomer, unassigned) [Example 640] | 0.036 µM | 3.9 µM |  |  |  | 1.6 µM |  |  |
| Cc1ncc(C(c2ccc(F)cc2)N2C[C@H](C)N(c3cc(=O)n(C)c4ccc(C#N)nc34)C[C@H]2C)cn1 (single isomer, unassigned) [Example 406] | 2.4 µM | 2.8 µM |  |  | 11 µM |  |  |  |
| C[C@@H]1CN(c2cc(=O)n(C)c3ccc(C#N)nc23)[C@@H](C)CN1C(c1ccc(Cl)cc1)c1cc(F)ccn1 (stereo partly drawn) [Example 446, 8-((2S,5R)-4-((4-chlorophenyl)(4-fluoropyridin-2-yl)methyl)-2,5-dimethylpiperazin-1-yl)-5-methyl-6-oxo-5,6-dihydro-1,5-naphthyridine-2-carbonitrile] | 1.7 µM | 2.1 µM |  |  | 1.1 µM |  |  |  |
| COC(=O)C1CN(c2cc(=O)n(C)c3ccc(C#N)nc23)CCN1C(c1ccc(F)cc1)c1ccc(F)cc1OC (single isomer, unassigned) [Example 70, Methyl 4-(6-cyano-1-methyl-2-oxo-1,2-dihydro-1,5-naphthyridin-4-yl)-1-((4-fluoro-2-methoxyphenyl)(4-fluorophenyl)methyl)piperazine-2-carboxylate] | 220 µM | 19 µM |  |  |  | 10 µM |  |  |
| C[C@@H]1CN(c2c(C#N)c(=O)n(C)c3ccc(C#N)nc23)[C@@H](C)CN1C(c1ccc(F)cc1)c1csc(C2CC2)n1 (single isomer, unassigned) [Example 859] |  |  | 3 µM | 0.36 µM |  |  |  | 3.7 µM |
| C[C@@H]1CN(c2cc(=O)n(C)c3ccc(C#N)nc23)[C@@H](C)CN1C(c1ccc(F)cc1)c1nc(C(C)(C)C)co1 (single isomer, unassigned) [Example 779] |  |  | 0.11 µM | 0.012 µM |  |  | 0.01 µM |  |
| C[C@@H]1CN(c2cc(=O)n(C)c3ccc(C#N)nc23)[C@@H](C)CN1Cc1cccc2c1cnn2C [Example 475, 8-((2S,5R)-2,5-dimethyl-4-((1-methyl-1H-indazol-4-yl)methyl)piperazin-1-yl)-5-methyl-6-oxo-5,6-dihydro-1,5-naphthyridine-2-carbonitrile] | 16 µM | 2 µM |  |  | 20 µM |  |  |  |
| COC(=O)c1cccc(C(C)N2C[C@H](C)N(c3c(C#N)c(=O)n(C)c4ccc(C#N)nc34)C[C@H]2C)c1 (single isomer, unassigned) [Example 795] |  |  | 13 µM | 160 µM |  |  | 20 µM |  |
| CC[C@H]1CN(C(c2ccc(F)cc2)c2ccc(C(F)(F)F)cn2)[C@H](CC)CN1c1cc(=O)n(C)c2ccc(C#N)nc12 (stereo partly drawn) [Example 1039] | 0.11 µM | 0.087 µM |  |  | 0.091 µM |  |  |  |
| CC(c1ccccc1F)N1C[C@H](C)N(c2c(C#N)c(=O)n(C)c3ccc(C#N)nc23)C[C@H]1C (single isomer, unassigned) [Example 797] |  |  | 1.8 µM | 8.6 µM |  |  |  | 1.8 µM |
| COc1ccc(C(C)N2C[C@H](C)N(c3c(C#N)c(=O)n(C)c4ccc(C#N)nc34)C[C@H]2C)nc1 (single isomer, unassigned) [Example 799] |  |  | 0.86 µM | 9.9 µM |  |  |  | 20 µM |
| CC(c1ccc(OC(F)(F)F)cc1)N1C[C@H](C)N(c2cc(=O)n(C)c3ccc(C#N)nc23)C[C@H]1C (single isomer, unassigned) [Example 435] | 1.1 µM | 4.9 µM |  |  |  | 2.5 µM |  |  |
